From EP4428121A1, “MODULATORS OF SORTILIN ACTIVITY” (Vesper Bio Aps, priority 2023, dated 2024)

Experiments:
h-Sortilin = biological target: T1, h-Sortilin (Homo sapiens, UniProt Q99523); experiment: Neurotensin scintillation proximity assay (SPA); conditions: displacement of [3H]-neurotensin binding to h-Sortilin; 150 nM 6his-Sortilin, 5 nM [3H]-Neurotensin; average of at least 2 determinations
T1 sequence (Q99523 78-831): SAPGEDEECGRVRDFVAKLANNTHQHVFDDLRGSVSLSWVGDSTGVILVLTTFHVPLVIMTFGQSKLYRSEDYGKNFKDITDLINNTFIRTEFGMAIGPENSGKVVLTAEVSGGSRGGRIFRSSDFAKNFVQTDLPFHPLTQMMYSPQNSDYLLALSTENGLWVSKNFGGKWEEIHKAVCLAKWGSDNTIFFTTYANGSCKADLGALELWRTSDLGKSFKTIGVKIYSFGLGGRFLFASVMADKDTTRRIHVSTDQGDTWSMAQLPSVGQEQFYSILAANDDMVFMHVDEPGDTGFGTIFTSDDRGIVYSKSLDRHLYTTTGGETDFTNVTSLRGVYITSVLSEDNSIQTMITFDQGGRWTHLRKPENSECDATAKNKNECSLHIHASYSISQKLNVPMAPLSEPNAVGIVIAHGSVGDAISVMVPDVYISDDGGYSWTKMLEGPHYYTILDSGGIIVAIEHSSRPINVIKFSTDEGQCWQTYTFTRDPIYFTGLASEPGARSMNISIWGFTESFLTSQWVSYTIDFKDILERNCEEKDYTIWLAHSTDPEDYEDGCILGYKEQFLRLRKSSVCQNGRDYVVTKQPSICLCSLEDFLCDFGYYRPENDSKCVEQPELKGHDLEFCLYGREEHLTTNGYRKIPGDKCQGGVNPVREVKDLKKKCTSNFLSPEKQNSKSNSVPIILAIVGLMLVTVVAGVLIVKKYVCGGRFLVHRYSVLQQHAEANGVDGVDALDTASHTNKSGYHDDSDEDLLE
Procedure: NTS, which is a 13 amino acid neuropeptide, is a sortilin ligand.
Compound affinity was determined by measuring the displacement of [^3H]-neurotensin binding to h-Sortilin in SPA format. Total volume of 40 µl in 50 mM HEPES pH 7.4 assay buffer containing 100 mM NaCl, 2.0 mM CaCl2, 0.1% BSA and 0.1% Tween-20. Compound pre-incubation for 30 minutes at room temperature with 150 nM of 6his-Sortilin before 5 nM [3H]-Neurotensin and Ni chelate imaging beads (Perkin Elmer) were added, after 6 hours the plate was read on a ViewLux with 360 s exposure time. Dose-response evaluation of compounds was performed with 8 concentrations of drugs (covering 3 decades). IC50 values were calculated by nonlinear regression using the sigmoid concentration-response (variable slope) using CDD Vault software. All values reported are average of at least 2 determinations.

Human (6-His)Sortilin = biological target: T2, Human (6-His)Sortilin (Homo sapiens, UniProt Q99523); experiment: Human Sortilin GCI (Grating-Coupled Interferometry) binding assay; conditions: Creoptix WAVE-RAPID, single concentration (usually 1 µM, 10 µM or 100 µM), immobilised Human (6-His)Sortilin, 1:1 kinetic binding model
T2 construct: purchased RnD Systems
T2 sequence (Q99523 78-755 limits assumed): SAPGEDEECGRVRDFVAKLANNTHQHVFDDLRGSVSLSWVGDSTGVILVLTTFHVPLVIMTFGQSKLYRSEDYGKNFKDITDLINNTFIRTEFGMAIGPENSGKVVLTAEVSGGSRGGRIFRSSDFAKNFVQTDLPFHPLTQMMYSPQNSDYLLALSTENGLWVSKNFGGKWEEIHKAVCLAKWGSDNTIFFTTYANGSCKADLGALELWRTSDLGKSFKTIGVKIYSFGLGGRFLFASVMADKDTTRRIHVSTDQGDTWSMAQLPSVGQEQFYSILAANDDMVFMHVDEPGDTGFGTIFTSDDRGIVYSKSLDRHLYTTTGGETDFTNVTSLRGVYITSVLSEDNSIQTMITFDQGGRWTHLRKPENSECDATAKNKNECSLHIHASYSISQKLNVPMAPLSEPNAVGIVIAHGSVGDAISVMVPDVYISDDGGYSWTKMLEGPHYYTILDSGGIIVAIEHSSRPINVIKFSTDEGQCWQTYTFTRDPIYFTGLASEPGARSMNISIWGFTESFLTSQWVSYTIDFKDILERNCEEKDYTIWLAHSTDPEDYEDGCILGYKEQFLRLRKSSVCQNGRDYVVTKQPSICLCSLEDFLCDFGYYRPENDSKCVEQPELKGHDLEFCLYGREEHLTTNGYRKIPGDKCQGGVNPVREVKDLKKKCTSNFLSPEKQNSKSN

Q: For `Cc1cc(N[C@@H](CCC(C)(C)C)C(=O)O)ncn1` [Example 24, (S)-5,5-dimethyl-2-(6-methyl-4-pyrimidinylamino)hexanoic acid], which IC50 (h-Sortilin) is on record?
A: 2870 nM

Q: And the Kd (Human (6-His)Sortilin)?
A: 429 nM

Q: With `CC(C)(C)CC[C@H](Nc1ncccn1)C(=O)O` [Example 5, (S)-5,5-dimethyl-2-(2-pyrimidinylamino)hexanoic acid] as the molecule, how does the IC50 (h-Sortilin) read?
A: 1190 nM

Q: What about the Kd (Human (6-His)Sortilin) of the same molecule?
A: 13200 nM

Q: `Cc1cccc2c(N[C@@H](CCC(C)(C)C)C(=O)O)ncnc12` [Example 26, (S)-5,5-dimethyl-2-(8-methyl-4-quinazolinylamino)hexanoic acid] was tested. Which IC50 (h-Sortilin) did it give?
A: 1830 nM

Q: And the Kd (Human (6-His)Sortilin)?
A: 54.1 nM

Q: Which results are given for `CC(C)(C)CCC(Nc1cccnc1)c1nn[nH]n1` (racemic) [Example 69, N-3-pyridyl[4,4-dimethyl-1-(2H-tetraazol-5-yl)pentyl]amine]?
A: IC50 (h-Sortilin): 10000 nM; Kd (Human (6-His)Sortilin): 1800 nM

Q: What does the source list for `CC(C)(C)CC[C@H](Nc1cncc(Oc2ccccc2)n1)C(=O)O` [Example 28, (S)-5,5-dimethyl-2-(6-phenoxy-2-pyrazinylamino)hexanoic acid]?
A: IC50 (h-Sortilin): 670 nM; Kd (Human (6-His)Sortilin): 525 nM

Q: Which results are given for `CC(C)(C)CC[C@H](Nc1cncnc1)C(=O)O` [Example 6, (S)-5,5-dimethyl-2-(5-pyrimidinylamino)hexanoic acid]?
A: IC50 (h-Sortilin): 1240 nM; Kd (Human (6-His)Sortilin): 4050 nM

Q: How did the IC50 (h-Sortilin) turn out when `Cc1cncc(N[C@@H](CCC(C)(C)C)C(=O)O)n1` [Example 27, (S)-5,5-dimethyl-2-(6-methyl-2-pyrazinylamino)hexanoic acid] was run?
A: 510 nM

Q: What about the Kd (Human (6-His)Sortilin) of the same molecule?
A: 664 nM

Q: `Cc1nccc(N[C@@H](CCC(C)(C)C)C(=O)O)n1` [Example 23, (S)-5,5-dimethyl-2-(2-methyl-4-pyrimidinylamino)hexanoic acid] was tested. Which IC50 (h-Sortilin) did it give?
A: 1310 nM

Q: What about the Kd (Human (6-His)Sortilin) of the same molecule?
A: 108 nM

Q: Which results are given for `CC(C)(C)CC[C@H](Nc1ccncn1)C(=O)O` [Example 7, (S)-5,5-dimethyl-2-(4-pyrimidinylamino)hexanoic acid]?
A: IC50 (h-Sortilin): 1140 nM; Kd (Human (6-His)Sortilin): 8280 nM

Q: With `Cc1cc(N[C@@H](CCC(C)(C)C)C(=O)O)nc(C)n1` [Example 25, (S)-2-(2,6-dimethyl-4-pyrimidinylamino)-5,5-dimethylhexanoic acid] as the molecule, how does the IC50 (h-Sortilin) read?
A: 1560 nM

Q: And the Kd (Human (6-His)Sortilin)?
A: 499 nM

Q: What does the source list for `CC(C)(C)CCC(Nc1ccccn1)c1nn[nH]n1` (racemic) [Example 68, N-2-pyridyl[4,4-dimethyl-1-(2H-tetraazol-5-yl)pentyl]amine]?
A: IC50 (h-Sortilin): 10000 nM; Kd (Human (6-His)Sortilin): 7570 nM

Q: `CC(C)(C)CC[C@H](Nc1ncnc2ccccc12)C(=O)O` [Example 8, (S)-5,5-dimethyl-2-(4-quinazolinylamino)hexanoic acid] was tested. Which IC50 (h-Sortilin) did it give?
A: 325 nM

Q: And the Kd (Human (6-His)Sortilin)?
A: 116 nM

Q: How did the IC50 (h-Sortilin) turn out when `CC(C)(C)CC[C@H](Nc1cnccn1)C(=O)O` [Example 4, (S)-5,5-dimethyl-2-(2-pyrazinylamino)hexanoic acid] was run?
A: 1080 nM

Q: What about the Kd (Human (6-His)Sortilin) of the same molecule?
A: 5570 nM

Q: For `CC(C)(C)CC[C@H](Nc1cccnc1)C(=O)O` [Example 31, (S)-5,5-dimethyl-2-(3-pyridylamino)hexanoic acid], which IC50 (h-Sortilin) is on record?
A: 1810 nM

Q: And the Kd (Human (6-His)Sortilin)?
A: 1710 nM

Q: `CC(C)(C)CC[C@H](Nc1ccccn1)C(=O)O` [Example 2, (S)-5,5-dimethyl-2-(2-pyridylamino)hexanoic acid] was tested. Which IC50 (h-Sortilin) did it give?
A: 2200 nM

Q: And the Kd (Human (6-His)Sortilin)?
A: 2230 nM
